Publication PMC3479967 (Evidence-based Complementary and Alternative Medicine : eCAM, 2012)

Molecular target: T1, UGT1A3 (Homo sapiens, UniProt P35503)
T1 sequence (P35503 29-534): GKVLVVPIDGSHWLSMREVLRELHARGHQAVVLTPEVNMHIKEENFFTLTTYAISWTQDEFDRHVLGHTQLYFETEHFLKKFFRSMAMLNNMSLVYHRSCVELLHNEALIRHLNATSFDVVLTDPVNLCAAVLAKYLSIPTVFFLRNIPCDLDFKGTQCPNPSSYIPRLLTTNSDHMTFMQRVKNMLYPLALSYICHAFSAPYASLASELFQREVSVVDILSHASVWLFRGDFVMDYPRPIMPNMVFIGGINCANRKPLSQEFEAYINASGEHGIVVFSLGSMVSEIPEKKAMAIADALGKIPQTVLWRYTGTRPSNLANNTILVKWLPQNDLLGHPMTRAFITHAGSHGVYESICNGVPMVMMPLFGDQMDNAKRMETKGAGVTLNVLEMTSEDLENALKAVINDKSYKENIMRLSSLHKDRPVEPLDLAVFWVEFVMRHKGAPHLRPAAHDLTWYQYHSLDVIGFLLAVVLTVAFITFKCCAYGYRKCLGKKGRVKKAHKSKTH
Assay: Inhibition of recombinant UGT1A3 activity (4-MU glucuronidation)
Protocol: A panel of recombinant human UGT supersomes (UGT1A1, UGT1A3, UGT1A4, UGT1A6, UGT1A7, UGT1A8, UGT1A9, UGT1A10, UGT2B4, UGT2B7, UGT2B15, and UGT2B17) expressed in baculovirus-infected insect cells were purchased from BD Gentest Corp. (Woburn, MA, USA).
4-MU, a nonselective substrate of UGTs, was used as probe substrate for all UGTs except UGT1A4. Incubations with each individual enzyme were conducted using conditions previously described. There was a 5 min preincubation step at 37°C before the reaction was started by addition of UDPGA. The incubation mixtures were then centrifuged at 20,500 ×g for 15 min to obtain the supernatant. Aliquots (20 μL) were then analyzed by HPLC. The HPLC system (SHIMADZU, Kyoto, Japan) consisted of an SCL-10A system controller, two LC-10AT pumps, a SIL-10A auto injector, and a SPD-10AVP UV detector. […] The mobile phase consisted of 10 mM KH2PO4, pH 2.7 (A) and acetonitrile (B). The following gradient was applied at a flow rate of 1 mL/min: 0–4 min 80% A and 20% B, 4.1–8 min 50% A and 50% B, 8.1–12 min, 30% A and 70% B. All experiments were performed in two independent experiments in duplicate.
A typical incubation mixture contained recombinant human UGTs, 5 mM MgCl2, 5 mM UDPGA, 50 μg/mg protein alamethicin, 50 mM Tris-HCl buffer (pH 7.4), and various probe substrates of UGTs in the absence or presence of different concentrations of inhibitors. […] The final concentration of DMSO in the incubation system was 1% (v/v). […] Known UGT inhibitors were used as positive controls: diclofenac for UGT1A1, UGT1A6, UGT1A7, and UGT1A9; androsterone for UGT1A3, UGT2B7, and UGT2B15, phenylbutazone for UGT1A8 and UGT1A10, and hecogenin for UGT1A4, respectively. There is no positive control reported available for UGT2B4 and UGT2B17. The negative controls are the incubation without UDPGA. […] The final concentration of DMSO in the incubation system was 1% (v/v). […] There was a 5 min preincubation step at 37°C before the reaction was started by the addition of UDPGA. Incubation times were 120 min for UGT1A1, UGT1A10, UGT2B4, UGT2B15, and UGT2B17, 75 min for UGT1A3, and 30 min for UGT1A4, UGT1A6, UGT1A7, UGT1A8, and UGT1A9. The reactions were quenched by adding 100 μL acetonitrile and internal standard. The incubation mixtures were then centrifuged at 20,500 ×g for 15 min to obtain the supernatant. An aliquot of the supernatant was used for HPLC analysis as described above. All experiments were performed in two independent experiments in duplicate.
Inhibition data from experiments were graphically represented by Dixon plots. K i values were calculated by nonlinear regression using the equations for competitive inhibition (1), noncompetitive inhibition (2), or mixed inhibition (3), [22] […] The type of inhibition was determined from the enzyme inhibition models. […]

IC50 [µM]	Compound	Ki [µM]
> 100	COc1ccc(-c2oc3c(CC=C(C)C)c(O[C@@H]4O[C@H](CO)[C@@H](O)[C@H](O)[C@H]4O)cc(O)c3c(=O)c2O)cc1 [Icariside I]	–
> 100	COc1ccc(-c2oc3c(CC=C(C)C)c(O)cc(O)c3c(=O)c2O)cc1 [Icaritin]	–

Compound	IC50 [µM]	Ki [µM]
COc1ccc(-c2oc3c(CC=C(C)C)c(O[C@@H]4O[C@H](CO)[C@@H](O)[C@H](O)[C@H]4O)cc(O)c3c(=O)c2O[C@@H]2O[C@@H](C)[C@H](O)[C@@H](O)[C@H]2O)cc1 [Icariin]	12.4 ± 0.1	8 ± 1.4
